Data published in patent US20240139190A1, “NOVEL ANTIPARASITIC COMPOUNDS AND METHODS” (The Board of Regents of The University of Texas System, priority 2019, published 2024).

Tests used:
[1] = test system: L. amazonensis promastigotes and amastigotes; assay: Tubulin intensity by confocal immunofluorescence microscopy; type: cell-based, Leishmania amazonensis; conditions: 24 h at EC50^72 h
Procedure: Promastigotes or amastigotes were treated with the indicated compound concentrations and allowed to adhere to poly-L-lysine coated plates. All cells were fixed with 4% paraformaldehyde and permeabilized/blocked with 0.01% Triton X-100 and 2% BSA in PBS. Promastigotes and amastigotes were incubated with mouse anti-gp46 or anti-p8, respectively at 1:50 or 1:1000 and rat anti-alpha-tubulin antibody at 1:1000. Samples were then probed with A568 anti-mouse and […] secondary antibodies (Molecular Probes). DNA was labeled with Hoescht. Samples were visualized on a Zeiss LSM 880 Inverted confocal Airyscan microscope at 63×; full Z-thicknesses through parasites were obtained. […] For microscopic analysis of mitotic arrest, at least 200 parasites were analyzed per condition per experiment after 48 hrs incubation at compounds' EC50, and the average plus standard error for three experiments was calculated. Representative images were selected from the maximal intensity projections and linearly processed in Adobe Photoshop CS6.
(§1) One reason why MMV676477 might affect parasite cell division is that, like paclitaxel, it might affect microtubule polymerization, either directly or indirectly. The degree to which MMV676477 affected microtubules polymerization in cells was examined. […] Centrifugation of these extracts allowed separation of insoluble polymeric (pellet) and soluble dimeric (supernatant) tubulin. […] The intensity of α-tubulin staining was examined by normalizing it to the intensity of a membrane protein (gp46 for promastigotes in FIG. 4D; p8 for amastigotes in FIG. 4E).

[2] = test system: cellular tubulin of L. amazonensis; assay: Polymerized vs. unpolymerized tubulin in parasites (differential centrifugation, western blot); type: cell-based, Leishmania amazonensis; conditions: 24 h at EC50^72 h, densitometry
From the text: as §1

[3] = test system: L. amazonensis axenic amastigotes; assay: alamarBlue viability / concentration-response assay, axenic amastigotes; type: cell-based, Leishmania amazonensis; conditions: Leishmania amazonensis, 72 h, L. amazonensis, stage not stated; read-out: EC50^72 h for La
Procedure: Leishmania amazonensis axenic amastigotes (100 μL, 2×10^6 cells/mL) were added to 96-multiwell plates containing 100 μL of amastigote culture medium with an appropriate compound dilution series. 0.1% DMSO (no drug) served as a positive control (100%), and 5 μM amphotericin B served as a negative growth control (0%). Only internal wells were used to minimize edge effects from evaporation. Axenic amastigotes were incubated at 32° C. with a compound/drug for 72 h prior to measurement. Similarly, the cytotoxicity of each compound was determined against RAW 264.7 cells and HepG2 cell lines, following 72 h incubation at 37° C. (promastigotes at 26° C.).
10% alamarBlue® (Thermo Fisher Scientific) was used to measure the growth of both parasite and mammalian cells. Conversion from a blue oxidized state to a pink reduced state was assessed visually at 6 hr. The fluorescence signal was measured with a BioTek Synergy H1 plate reader (530 nm excitation, 570 nm emission). For bioluminescence assays using L. amazonensisluc, relative luminescence units (RLU) were measured using Britelite Plus (PerkinElmer, USA). Luminescence produced by this luciferase reaction is proportional to the amount of luciferase-expressing, viable L. amazonensisluc. Following five-minute incubation at room temperature, the luminescence was measured with a BioTek Synergy H1 plate reader.
All experiments were conducted as three technical triplicates on the same plate, with at least three independent biological repeats of each plate performed. For all assays, percent growth was expressed as a proportion of the untreated (positive) control (i.e. 100%) and plotted against drug/compound concentration. The concentration was then log10 transformed and EC50 values were determined using nonlinear regression (sigmoidal dose-response/variable slope equation) in GraphPad Prism v5.0 (GraphPad Software, Inc., San Diego, CA).
To identify antileishmanial compounds, a microplate-based alamarBlue® assay was used to quickly triage the 400 drug-like compounds available in the MMV Pathogen Box collection. […] A three-step process was used to screen the Pathogen Box: 1) identify hits against axenic amastigotes, 2) confirm the inhibitory concentrations of these hits against axenic amastigotes, 3) evaluate hits for potency against intracellular parasites using fluorescence and bioluminescence-based intracellular assays. The MMV Pathogen Box resource was tested at two concentrations (5 μM and 1 μM, 72 h endpoint) on axenic amastigotes.
Hits were defined as compounds that, at a concentration of 1 μM, decreased the relative fluorescence intensity signal to ≤70% of that produced by parasites incubated in vehicle (0.06% DMSO) only (FIG. 9).

[4] = target: purified L. tarentolae tubulin (Leishmania tarentolae, UniProt A0A640KCM0+A0A640KQN0); assay: Tubulin polymerization turbidity assay, Leishmania tubulin; type: biochemical
Procedure: L. tarentolae (Parrot strain from ATCC) tubulin was purified. Briefly, promastigotes of L. tarentolae were grown to a high density (˜1×10^8 cells/mL), harvested, and resuspended in PME+P buffer containing 100 mM piperazine N, N′-bis (2-ethanesulfonic acid) (PIPES) buffer (pH 6.9), 1 mM glycol ether diamine tetraacetic acid (EGTA), 1 mM MgCl2, 1 mM benzamidine, 0.5 mM phenylmethylsulfonyl fluoride, 25 μg/ml leupeptin. The resulting suspension was extensively sonicated on ice with a probe sonicator (Misonix), cooled on ice for 30 minutes and centrifuged at 40,000×g for 1 hour at 4° C. using an ultracentrifuge (Beckman, Fullerton, CA). The resulting supernatant was filtered through a glass wool or 0.45-micron filter before loading into an equilibrated DEAE-Sepharose Fast Flow matrix (Amersham Biosciences). The column was washed with two column volumes of PME+P and subsequently four column volumes PME+P containing 0.1 M KCl and 0.25 M glutamate (pH 6.9). Tubulin was eluted with two column volumes PME+P containing 0.3 M KCl and 0.75 M glutamate (pH 6.9), and tubulin-rich fractions were confirmed by tubulin polymerization assays. The assembly-competent tubulin was pooled together and diluted into 1×PME buffer, 2 mM GTP, 10 mM MgCl2 and 8% DMSO (v/v). Tubulin was incubated in this buffer for 45 minutes at 30° C. to promote assembly, centrifuged at 50,000×g at 30° C. for 30 min, and re-suspended in 1 mL of ice-cold PME. […] Purity was assessed by SDS-PAGE and Coomassie Blue.
Tubulin polymerization assays were performed in 96-well half-area microplates (Costar) in a final volume of 100 μL. […] The absorbance at 340 nm was recorded in a Synergy H1 microplate reader (BioTek) for up to 45 min at 37° C. […]
To determine whether MMV676477 directly regulates microtubule assembly, assembly-competent tubulin from Leishmania tarentolae was purified and analyzed (FIG. 5A). […] 3 mg/mL purified L. tarentolae tubulin (3 mg/mL) was treated with serial dilutions of MMV676477 while the absorbance was measured at 340 nm over time.

purified porcine tubulin [5] = target: T1, purified porcine tubulin (Sus scrofa, UniProt P02550+P02554); assay: Fluorescent microtubule assembly assay; type: biochemical; conditions: mammalian tubulin, fluorescence micrographs
T1 construct: purchased Cytoskeleton, Inc. T240
Procedure: (§2) To determine the selectivity of MMV676477, purified porcine tubulin was exposed to a serial dilution of the drug (0 to 25 μM) and absorbance was measured at 340 nm over time. […] To ensure that the absorbance seen at 340 nm reflected microtubule formation and not precipitation, a fluorescent microtubule assembly assay was employed.

purified porcine tubulin [6] = target: T1, purified porcine tubulin; assay: Tubulin polymerization turbidity assay, mammalian tubulin; type: biochemical
Procedure: Tubulin polymerization assays were performed in 96-well half-area microplates (Costar) in a final volume of 100 μL. Briefly, Leishmanial or porcine tubulin (>99% pure, Cat. #T240, Cytoskeleton, Inc.) in 50 μL volume was pre-treated with drugs on ice for 5 minutes before adding 50 μL ice cold buffer, to provide a final concentration of 3 mg/ml tubulin in 80 mM PIPES pH 6.9, 2 mM MgCl2, 0.5 mM EGTA, 1 mM GTP, and 1% DMSO unless specified otherwise. The absorbance at 340 nm was recorded in a Synergy H1 microplate reader (BioTek) for up to 45 min at 37° C. (porcine tubulin) or 30° C. (L. tarentolae tubulin).
as §2

Which results are given for `CC(=O)O[C@H]1C(=O)[C@@]2(C)[C@H]([C@H](OC(=O)c3ccccc3)[C@]3(O)C[C@H](OC(=O)[C@H](O)[C@@H](NC(=O)c4ccccc4)c4ccccc4)C(C)=C1C3(C)C)[C@]1(OC(C)=O)CO[C@@H]1C[C@@H]2O` [paclitaxel]?
tubulin intensity over control (DMSO-treated) [1]: significant two-fold increase in tubulin intensity; proportion of cellular polymeric tubulin [2]: significantly increased the proportion of cellular polymeric tubulin; EC50 [3]: 760 nM; EC50 [4]: 1300 nM; microtubules formed vs control (purified porcine tubulin [5]): many more microtubules were formed; EC50 (purified porcine tubulin [6]; 3 mg/ml tubulin, 1% DMSO, A340): 1500 ± 200 nM; Maximum absorbance (A340, 10% DMSO) (purified porcine tubulin [6]; mammalian tubulin): 0.36
